Usually IC50 stands for the concentration that inhibits the measured activity by half. Read a high IC50 as weaker potency.

The nature of the test: Inhibition of HIV1 gp41- induced cell-cell fusion between viral envelope expressed in human HL2/3 cells to CD4/CCR5 receptor expressed TZM-bl cells after 6 hrs by luciferase assay.
“H-RIQQIEQKIHHIEQRIQQIEQRIEAQQHLLQLTVWGIKQLQARIL-OH” gave an IC50 of 39 nM. For “H-RIQQIEQKIHHIEQRIQQIEQRISGIVQQQNNLLRIEAQQHLLQLTVWGIKQLQARIL-OH” the value was 82 nM. For H-YTSLIHSLIEEQNQQEKNEQELLELDKWALWNWF-OH the value was 2.5 nM; for “H-RIQQIEQKIHHIEQRIQQIEQLLQLTVWGIKQLQARIL-OH”, 251 nM.

For the origin of these results see BindingDB's records for doi:10.1016/j.bmc.2019.115214 (Nankai University, 2020).
